Results published in patent US20100331363A1, “TREATMENT OF MITOCHONDRIAL DISORDERS USING A FARNESYL TRANSFERASE INHIBITOR” (Link Medicine Corporation, priority 2008, published 2010).
Entries after “also recorded” stand apart in the source; their conditions may differ. Like-named read-outs stand apart in the source and are kept apart here.

How the values were obtained:
[1] = molecular target: GGTase (Homo sapiens, UniProt P49354+P53609); assay: Table 5A in vitro GGTI (H-Ras, K-Ras CAAX mutant); assay type: biochemical
Excerpt: (§1) The selectivity of LNK-754 for FTase over GGTAse is shown below in Table 5A.

[2] = molecular target: FTase (Homo sapiens, UniProt P49354+P49356); assay: Table 5A in vitro FTI (H-Ras, K-Ras protein) and Ki FTase; assay type: biochemical
Excerpt: as §1

[3] = 3T3H-ras (61 L) xenograft tumor-bearing athymic mouse, continuous infusion 7 days, PK/PD; assay type: in vivo; conditions: intravenous, calculated from minimal continuous serum level of 100 ng/ml, read-out: minimal efficacious AUC
Excerpt: FIG. 3 provides pharmacokinetic and pharmacodynamic data for continuously infused LNK-754 (CP-609,754) in a 3T3H-ras (61 L) xenograft tumor-bearing athymic mouse (7 day treatment). […] From Pfizer Investigational New Drug Application for CP-609,754, Section 8, Pharmacology and Toxicology, dated Nov. 19, 1999. See also Moulder et al., Clinical Cancer Research 10:7127-7135, Nov. 1, 2004.
Further data supporting the stark difference in dosing levels for efficacy in oncology and synucleinopathies is shown in FIG. 3 and Table 2A below. In the experiment shown in FIG. 3, a xenograft model is once again used, but there is continuous infusion of LNK-754-TS, and thus a steady state concentration of drug in the plasma and tissues.
In the experimental data represented in Table 2A, a different method of drug delivery is used (oral) than in the experiment represented in FIG. 3. The best way to compare the relative coverage of the two delivery methods (oral and continuous infusion) is by comparing area-under-the-curve (AUC) values. We can compare the calculated AUC values for the continuous infusion oncology study presented in FIG. 3 and the AUC values associated with the synuclein model doses in the table. […] The AUCs of orally dosed LNK-754-TS at 0.9 mg/kg and at 0.09 mg/kg QD are 34.6 and […], respectively.

[4] = system: Aβ; assay: h-APPs1 transgenic mouse, Aβ levels; assay type: in vivo; conditions: 0.9 mg/kg once every 24 hr, three months
Excerpt: Finally, it is important to note that LNK-754-TS had no effect on APP processing and secretion in a cell culture model of pathogenic Aβ production (Selkoe, D. J., et al. Ann N Y Acad Sci 777, 57-64 (1996)).

[5] = system: Ras; assay: Inhibition of Ras farnesylation in SH-SY5Y cells; assay type: cell-based, human; conditions: continuous exposure over long periods, average
[6] = system: LC3 mRNA; assay: LC3 mRNA (qPCR) in SH-SY5Y cells; assay type: cell-based, human
Procedure: Cell culture and immunocytochemistry: SH-SY5Y cells were grown in DMEM medium supplemented with 10% FBS and 1% pen/strep at 37° C. and 5% CO2. Cells were differentiated with 10 μM retinoic acid for 48 hr, then treated with the either rapamycin (100 nM or 1 μM) or with 100 nM of either LNK-754-TS or Tipifarnib for 48-72 hr. Cells were then fixed with 4% paraformaldehyde and stained for LC3 (Novus biological, NB100-2331, dilution 1:800) followed by secondary Alexa-564 anti-Rabbit (A-11011).
Quantitative real-time PCR: Gene expression profiles were done by qPCR on series of known autophagy genes. RNA was extracted with Tri-reagent (Sigma), and cDNAs generated using iScript (Biorad). qPCR analysis was carried out in a 96 well plate using an iCycler (BioRad, Hercules, Calif.), and iQ SYBR Green Supermix (Biorad) according to the manufacturer's specifications.
Such increases in LC3 mRNA levels are associated in the literature with stimulation of macroautophagy. This supports the hypothesis that at doses as low as 1 nM in this in vitro system there is stimulation of autophagy in these cells.
Autophagy was measured in a neuroblastoma cell culture system by three distinct approaches: quantitation of autophagy-related mRNA's, immunofluorescence microscopy of autophagosomes, and biochemical detection of the microtubule-associated protein 1 light chain 3 (LC3) a key protein that is required for autophagosome formation. Differentiated human neuroblastoma cells (SH-SY5Y) were treated for 72 hr with LNK-754-TS (0.01-100 nM), Zarnestra® (also referred to herein as tipifarnib) (100 nM) or rapamycin (1 μM).

[7] = system: TAU441 transgenic mice; assay: Porsolt forced swim task in TAU441 transgenic mice; assay type: in vivo, mouse; conditions: 0.09 mg/kg daily for 90 days
Excerpt: Tests relevant to depression-like behaviors in rodents are primarily stress-induced reductions in avoidance or escape, termed behavioral despair. One of the most widely used animal tests for depression is the Porsolt forced swim task (Porsolt et al., Arch. Int. Pharmacodyn. Ther. 229(2):327-36, 1977; Porsolt et al., Eur. J. Pharmacol. 47(4):379-91, 1978). This study was designed to evaluate the effects of treatment with LNK-754 on behavior of TAU441 transgenic mice. At start of the treatment, the animals were 5 months old. Untreated non-transgenic animals of the same age were tested and sacrificed serving as the baseline group. Mice received vehicle or LNK-754-TS at a dose of 0.09 mg per kg, 7 days a week for 90 days. In the last week of the treatment period and before sacrifice, mice were evaluated using the Porsolt forced swim task (FIG. 10B).

Compound	IC50 ([1]; read-out: H-Ras CAAX Mutant GGTI) [nM]	IC50 ([1]; read-out: K-Ras CAAX Mutant GGTI) [nM]	Ki [2] [nM]	GGTI/FTI (H-Ras) ([2]; ratio)	GGTI/FTI (K-Ras) ([2]; ratio)	IC50 ([2]; read-out: H-Ras protein CLVS in vitro FTI) [nM]	IC50 ([2]; read-out: K-Ras protein CVIM in vitro FTI) [nM]	AUC [3] [ng·h/mL]	amounts of more soluble Aβ42 species [4]	cortical Aβ immunoreactivity and Aβ in insoluble fractions [4]	IC50 [5] [nM]	LC3 transcript ([6]; 0.01-100 nM, 72 hr, differentiated SH-SY5Y (FIG. 8a))	levels of mRNA of LC3 ([6]; between 1 and 100 nM, SH-SY5Y, 72 hours (FIG. 4))	behavior compared with non-transgenic mice, forced swim task [7]	floating, forced swim task ([7]; vs vehicle)	struggling behavior, forced swim task ([7]; vs vehicle)
C#Cc1cccc(-c2cc(=O)n(C)c3ccc([C@](O)(c4ccc(Cl)cc4)c4cncn4C)cc23)c1 [LNK-754, (R)-6-[(4-chlorophenyl)-hydroxyl-(1-methyl-1-H-imidazol-5-yl)-methyl]-4-(3-ethynylphenyl)-1-methyl-2-(1H)-quinonlinone]	552	2890	< 0.05	580	40.11	0.9	72									
C#Cc1cccc(-c2cc(=O)n(C)c3ccc([C@](O)(c4ccc(Cl)cc4)c4cncn4C)cc23)c1 [LNK-754-TS, (R)-6-[(4-chlorophenyl)-hydroxyl-(1-methyl-1-H-imidazol-5-yl)-methyl]-4-(3-ethynylphenyl)-1-methyl-2-(1H)-quinonlinone (2S, 3S)-dihydroxybutanedioate]								~2400	small reduction	did not significantly reduce	1	upregulated; also recorded: increased	significant increases	behaved similar to non-transgenic mice; also recorded: behaved similarly to non-tg mice	significantly less floating; also recorded: decreasing floating behavior	higher percentage of struggling behavior; also recorded: increasing struggling behavior
